# Assay results from publication PMC12799219, “In vitro and in vivo studies on the activity and selectivity of butoconazole in experimental infection by Trypanosoma cruzi” (Memórias do Instituto Oswaldo Cruz, 2026).
# Several values for one entry are separate records, joined by “and”; a condition that tells them apart may be missing. Equal values may be shown once. Entries after “also recorded” stand apart in the source; their conditions may differ. Read-outs that look alike come from different tables or passages of the source.
# Legend:
# [1] = Cytotoxicity assay on L929 fibroblasts (AlamarBlue); format: cell-based; details: mouse
# Method: (§1) Mammalian cell cultures - L929 fibroblast lineage were cultured in Roswell Park Memorial Institute 1640 medium without phenol red (RPMI - Sigma-Aldrich, St. Louis, MO, USA), supplemented with 10% foetal bovine serum (FBS - Cultilab - SP - Brazil) and 2 mM glutamine (Sigma-Aldrich, St. Louis, MO, USA) with pH 7.2 - 7.4, as previously reported.[21] H9C2, cardiomyoblast cultures, were maintained in Dulbecco’s Modified Eagle’s Medium (DMEM) high glucose (4500 mg/L) medium supplemented (Sigma-Aldrich, St. Louis, MO, USA) with 10% FBS (Cultilab - SP -Brazil), 2 mM glutamine (Sigma-Aldrich, St. Louis, MO, USA) and 100 μg/mL penicillin/streptomycin (Sigma-Aldrich, St. Louis, MO, USA).[22] Both cell cultures maintained at 37 °C under an atmosphere of 5% CO2, with weekly dissociation protocol using 0.01% trypsin.
# (§2) Cytotoxicity assay - The toxicity of the compounds was evaluated on two mammalian cell lines (L929 and H9C2), as reported.[21] The cells were seeded in 96-well plates (4 x 10^3 cells/well - for L929; 25x10^3 cells/well - for H9C2) and incubated at 37 °C and 5% CO2. The L929 cultures were kept under treatment for 96 and 168 h with a serial dilution (1:2) of the compounds (up to 400 μM). After the treatment periods, the AlamarBlue® reagent (Thermo Fisher Scientific Inc) was added and incubated for 24 h. The H9C2 cultures were also treated in serial dilution up to 200 μM for 24 h. PrestoBlue® reagent (Thermo Fisher Scientific Inc) was added to the cultures and incubated for 3 h. All plates were analysed in the spectrophotometer SpectraMaxM3 (570 and 600 nm) and LC50 values (concentration capable of inducing loss of viability in 50% of the cells) determined.[21] All assays were done at least twice, in triplicates.
# [2] = tested on: T. cruzi bloodstream trypomastigotes (Y strain); assay: Mouse model of acute T. cruzi infection: parasitaemia and mortality; format: in vivo, Swiss male mice; details: for mortality (cumulative death) / parasitaemia peak decline at the 8 dpi: assay 1: BZ 25 mg/kg/day p.o., BTZ 45.61 mg/kg/day i.p.; for mortality (cumulative death) / parasitaemia reduction: five days; for parasitaemia peak decline at the 8 dpi: five days from 5 dpi; for animal mortality: assay 2, lower doses: BZ 10 mg/kg/day p.o.
# Method: In vivo analysis in a mouse model of acute T. cruzi infection - Swiss male mice (18 - 20 g) were obtained from the Institute of Sciences and Technologies in Biomodels (ICTB-FIOCRUZ), housed with a maximum of 5 animals per cage and kept in a specific pathogen-free (SPF) room at 20 - 24 °C under a 12 h light/dark cycle. All animals received sterilised water and food ad libitum. The animals were acclimatised for seven days before the experiments. For a proof-of-concept study, animals were infected by i.p (1x10^4) with bloodstream trypomastigotes (Y strain). The drugs administration started at the onset of parasitaemia (5th day dpi), only using mice with detectable parasitaemia.[19] ^, [28] Control mice groups were age-matched and housed under identical conditions. The following experimental groups were used ≥ 3 mice per group: untreated (infected vehicle-treated control) and treated orally (p.o) with BZ (10, 25 and 100 mg/kg/day), corresponding to suboptimal and optimal doses of the reference drug; infected and treated with BTZ (i.p) using concentrations adjusted to be equimolar to BZ doses (18.24, 45.61 and 182.44 mg/kg/day). Also, the following combo was administered: BZ (10 mg/kg/day/p.o) + BTZ (18.24 mg/kg/day/i.p). The animals received the drugs once a day for five consecutive days. A […] optimal dose of BZ (10 mg/kg/day) was chosen to clearly observe any benefit of its association with BTZ. The i.p. route for BTZ was chosen due to its low aqueous solubility.
# Parasitaemia and mortality rate - Parasitaemia was performed by collecting 5 μL of the blood from the tail’s vein, disposing it on a slide and covering with coverslips (18 x 18 mm) for direct counting of parasites observed in 50 fields under light microscope (40X magnification).[19] ^, [28] The mortality was followed daily up to 30 days after the end of treatment and expressed as a percentage of cumulative mortality (% CM).[19] ^, [27] In vivo assays were conducted with n = 5 per group.
# [3] = tested on: H9C2 mammalian cells; assay: cells; format: cell-based; details: for EC50: Rattus norvegicus, H9c2, 24 h, read-out: Toxicity on H9C2 mammalian cells pEC50 (converted)
# Method: as §1, §2
# [4] = in vitro; format: cell-based; details: rat, Toxicity on H9C2 mammalian cells LC50
# Method: as §1, §2
# [5] = tested on: T. cruzi (Y strain) blood trypomastigotes; assay: In vitro activity on bloodstream trypomastigotes; format: cell-based, Trypanosoma cruzi; details: for EC90 / EC50: Trypanosoma cruzi
# Method: In vitro activity on bloodstream trypomastigotes - Swiss male mice were inoculated with 5 x 10^4 bloodstream trypomastigotes (BT, Y strain, DTU II) and at the parasitaemia peak [8th post-infection (dpi)], euthanised using 3% isoflurane and blood samples obtained by cardiac puncture (CEUA FIOCRUZ L038-2017). Then, 100 μL of parasite suspension (10^7/mL in RPMI medium + 5% FBS) was added to the same volume of RPMI + 5% FBS containing treatment with BTZ (serially diluted - 1:2) at twice the desired final concentration. After 2 and 24 h at 37 °C, the number of live parasites was determined by light microscopy quantification using a Neubauer chamber.[6] Untreated controls were carried out with parasites kept under the same conditions and BZ was run in parallel. The activity of the compounds was expressed by the EC50 and EC90 values. The assays were done at least twice, in duplicate.
# [6] = tested on: T. cruzi intracellular forms (Tulahuen strain) in L929 cell lines; assay: Washout assay in L929 cultures infected with T. cruzi; format: cell-based, Trypanosoma cruzi; details: 10 µM for 168 h, then 168 h drug-free
# Method: Washout assays in L929 cultures infected with T. cruzi - L929 cultures were infected with Tulahuen strain as above described and incubated or not for 168 h with 10 µM of BZ and BTZ (37 °C/5% CO2). RPMI culture medium (containing the tested compounds) was replaced every 72 h. Then, the cultures were rinsed with 0.1M PBS, and the drug-free culture medium added for another 168 h, replacing it every 72 h. The number of parasites released into the supernatant and of intracellular forms were analysed by light microscopy and by spectrophotometry (570 nm) after adding CPRG, respectively. The results were expressed as the percentage of reduction in parasite growth compared to untreated cells. BZ was used as a positive treatment control.[25] The data results from two independent experiments done in at least triplicate.
# [7] = assay 2, higher doses: BZ 100 mg/kg/day p.o., BTZ 182.44 mg/kg/day i.p.
# [8] = assay 2, lowest doses: BZ 10 mg/kg/day p.o., BTZ 18.24 mg/kg/day i.p.
# [9] = 2 h, read-out: Activity on T. cruzi (Y strain) blood trypomastigotes EC50
# [10] = 24 h, read-out: Activity on T. cruzi (Y strain) blood trypomastigotes EC50
# [11] = 24 h, read-out: Activity on T. cruzi (Y strain) blood trypomastigotes pEC50 (converted)
Compound,CC50 at 96 h [1],CC50 at 168 h [1],mortality (cumulative death) [2],parasitaemia peak decline at the 8 dpi [2],"animal survival [2, 7]","parasitaemia reduction [2, 7]",animal mortality ([2]; BTZ 18.24 mg/kg/day i.p.),"parasitaemia reduction [2, 8]",EC50 [3],CC50 at 24 h [4],EC90 ([5]; 2 h),"EC50 [5, 9]",EC90 ([5]; 24 h),"EC50 [5, 10]","EC50 [5, 11]",Washout: reduction in the number of intracellular forms [6],Washout: reduction in the number of released parasites [6],other results
"Clc1ccc(CCC(Cn2ccnc2)Sc2c(Cl)cccc2Cl)cc1 (centres unmarked) [BTZ, butoconazole]",23.9 ± 1.1 µM,17.5 ± 3.24 µM,40%,50%,100%,63%,75%,only slightly,37.2 µM,36 ± 0.25 µM,> 20 µM,> 20 µM,18.64 ± 0.11 µM,13.8 ± 0.7 µM,14.1 µM,> 96% and 96 - 98% and 96 ± 4%,100 ± 0%,"EC50 at 168 h [1]: 24 µM; CC50 ([3]; rat, 24 h): 36.36 ± 0.25 µM; fold less potent than BZ on bloodstream trypomastigotes ([5]; 24 h, EC50 versus BZ): 2.3 fold"
"O=C(Cn1ccnc1[N+](=O)[O-])NCc1ccccc1 [BZ, benznidazole]",> 400 µM,> 200 µM,0%,93%,100%,suppressed the peak; also recorded: fully suppressed parasitaemia,100%,only slightly,> 200 µM,> 200 µM,> 20 µM,> 20 µM,17.5 ± 0.65 µM,5.93 ± 0.15 µM,6.03 µM,98.6 ± 1.4%,100 ± 0%,"EC50 at 168 h ([1]; L929 fibroblast cells, printed in the 168 h column, read-out: Cytotoxicity on L929 cells pEC50 (converted)): > 200 µM"
